Like-named read-outs stand apart in the source and are kept apart here.
Target: BTK (Homo sapiens (Human), UniProt Q06187)
Assay: Btk in vitro inhibitory activity (one of Method A TR-FRET, Method B electrophoretic mobility shift, Method C radiometric filter binding)
Type: biochemical
[1] = determined using one of the methods of Example 355a, 355b and 355c, read-out: BTK IC50

Chain of BTK (Q06187 whole entry): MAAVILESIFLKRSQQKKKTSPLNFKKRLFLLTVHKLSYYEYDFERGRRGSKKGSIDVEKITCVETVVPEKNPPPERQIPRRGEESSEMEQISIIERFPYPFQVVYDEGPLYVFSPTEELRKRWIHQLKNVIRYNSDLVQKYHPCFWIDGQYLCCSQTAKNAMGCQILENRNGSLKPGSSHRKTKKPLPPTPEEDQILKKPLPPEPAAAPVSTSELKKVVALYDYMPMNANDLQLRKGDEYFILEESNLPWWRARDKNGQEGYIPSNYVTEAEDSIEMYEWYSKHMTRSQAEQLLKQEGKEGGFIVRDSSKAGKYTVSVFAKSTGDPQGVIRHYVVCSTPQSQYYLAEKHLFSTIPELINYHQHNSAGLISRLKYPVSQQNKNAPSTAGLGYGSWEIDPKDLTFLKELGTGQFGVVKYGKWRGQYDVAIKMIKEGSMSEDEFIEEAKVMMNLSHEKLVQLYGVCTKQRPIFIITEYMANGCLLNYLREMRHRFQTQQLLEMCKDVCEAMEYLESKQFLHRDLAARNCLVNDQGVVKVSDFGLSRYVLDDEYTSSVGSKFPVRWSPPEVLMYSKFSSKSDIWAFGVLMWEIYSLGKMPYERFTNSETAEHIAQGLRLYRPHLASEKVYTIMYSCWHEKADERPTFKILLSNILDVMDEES

Structure (SMILES)	IC50 [1] [nM]	IC50 (read-out: Btk (IC50)) [nM]	IC50 (Btk (IC50)) [nM]	IC50 [nM]
NC(=O)c1ncc(N2CCC[C@@H](NC(=O)c3cc4ccccc4s3)C2)nc1Nc1ccc(C2CCN(C3CC3)CC2)cc1 [Example 315, (R)-5-(3-(benzo[b]thiophene-2-carboxamido)piperidin-1-yl)-3-(4-(1-cyclopropylpiperidin-4-yl)phenylamino)pyrazine-2-carboxamide]	10 to 100			10 to 100
NC(=O)c1ncc(N2CCC[C@@H](NC(=O)c3cc4c(s3)CCCC4)C2)nc1Nc1ccc(C2CCN(C3CC3)CC2)cc1 [Example 316, (R)-3-(4-(1-cyclopropylpiperidin-4-yl)phenylamino)-5-(3-(4,5,6,7-tetrahydrobenzo[b]thiophene-2-carboxamido)piperidin-1-yl)pyrazine-2-carboxamide]	< 10			
NC(=O)c1ncc(N2CCC[C@@H](NC(=O)c3ccc4ccccc4c3)C2)nc1Nc1ccc(C2CCN(C3CC3)CC2)cc1 [Example 317, (R)-5-(3-(2-naphthamido)piperidin-1-yl)-3-(4-(1-cyclopropylpiperidin-4-yl)phenylamino)pyrazine-2-carboxamide]	10 to 100			
NC(=O)c1ncc(N2CCC[C@@H](NC(=O)c3ccc(-c4ccccc4)cc3)C2)nc1Nc1ccc(C2CCN(C3CC3)CC2)cc1 [Example 318, (R)-5-(3-biphenyl-4-ylcarboxamidopiperidin-1-yl)-3-(4-(1-cyclopropylpiperidin-4-yl)phenylamino)pyrazine-2-carboxamide]	10 to 100			
NC(=O)c1ncc(N2CCC[C@@H](NC(=O)c3ccc(-c4ccccc4)nc3)C2)nc1Nc1ccc(C2CCN(C3CC3)CC2)cc1 [Example 319, (R)-3-(4-(1-cyclopropylpiperidin-4-yl)phenylamino)-5-(3-(6-phenylnicotinamido)piperidin-1-yl)pyrazine-2-carboxamide]	< 10			
CN(C(=O)N[C@@H]1CCCN(c2cnc(C(N)=O)c(Nc3ccc(F)cc3)n2)C1)c1cc(Cl)cc(C(F)(F)F)c1 [Example 322, (R)-5-(3-(3-(3-chloro-5-(trifluoromethyl)phenyl)-3-methylureido)piperidin-1-yl)-3-(4-fluorophenylamino)pyrazine-2-carboxamide]	100 to 1000	100 to 1000		
CN(C(=O)N[C@@H]1CCCN(c2cnc(C(N)=O)c(Nc3ccc(C4(C#N)CC4)cc3)n2)C1)c1cc(Cl)cc(C(F)(F)F)c1 [Example 323, (R)-5-(3-(3-(3-chloro-5-(trifluoromethyl)phenyl)-3-methylureido)piperidin-1-yl)-3-(4-(1-cyanocyclopropyl)phenylamino)pyrazine-2-carboxamide]	100 to 1000	100 to 1000		
CN(C(=O)N[C@@H]1CCCN(c2cnc(C(N)=O)c(Nc3ccc(C4(C(N)=O)CC4)cc3)n2)C1)c1cc(Cl)cc(C(F)(F)F)c1 [Example 324, (R)-3-(4-(1-carbamoylcyclopropyl)phenylamino)-5-(3-(3-(3-chloro-5-(trifluoromethyl)phenyl)-3-methylureido)piperidin-1-yl)pyrazine-2-carboxamide]	10 to 100	10 to 100		
CN(C)C(=O)N[C@@H]1CCCCN(c2cnc(C(N)=O)c(Nc3ccc(C4CCN(C5CCCC5)CC4)cc3)n2)C1 [Example 327, (R)-3-(4-(1-cyclopentylpiperidin-4-yl)phenylamino)-5-(3-(3,3-dimethylureido)azepan-1-yl)pyrazine-2-carboxamide]	< 10	< 10		
NC(=O)c1ncc(N2CCCC[C@@H](NC(=O)C3CC3)C2)nc1Nc1ccc(C2CCN(C3CCCC3)CC2)cc1 [Example 328, (R)-3-(4-(1-cyclopentylpiperidin-4-yl)phenylamino)-5-(3-(cyclopropanecarboxamido)azepan-1-yl)pyrazine-2-carboxamide]	< 10	< 10		
NC(=O)c1nnc(N2CCC[C@@H](NC(=O)N3CCCCC3)C2)nc1Nc1ccc(C2CCN(C3CCCC3)CC2)cc1 [Example 336, (R)-5-(4-(1-cyclopentylpiperidin-4-yl)phenylamino)-3-(3-(piperidine-1-carboxamido)piperidin-1-yl)-1,2,4-triazine-6-carboxamide]	< 10	< 10		
CCC(=O)N1CCC(c2ccc(Nc3nc(N4CCC[C@@H](NC(=O)N5CCCCC5)C4)nnc3C(N)=O)cc2)CC1 [Example 339, (R)-3-(3-(piperidine-1-carboxamido)piperidin-1-yl)-5-(4-(1-propionylpiperidin-4-yl)phenylamino)-1,2,4-triazine-6-carboxamide]	< 10	< 10		
C=CC(=O)N1CCC(c2ccc(Nc3nc(N4CCC[C@@H](NC(=O)N5CCCCC5)C4)nnc3C(N)=O)cc2)CC1 [Example 340]	< 10			
N#CCC(=O)N1CCC(c2ccc(Nc3nc(N4CCC[C@@H](NC(=O)N5CCCCC5)C4)nnc3C(N)=O)cc2)CC1 [Example 341, (R)-5-(4-(1-(2-cyanoacetyl)piperidin-4-yl)phenylamino)-3-(3-(piperidine-1-carboxamido)piperidin-1-yl)-1,2,4-triazine-6-carboxamide]	< 10			10 to 100

More lines, main results first:

IC50 [1] [nM]	IC50 (read-out: Btk (IC50)) [nM]	IC50 (Btk (IC50)) [nM]	Structure (SMILES)	IC50 [nM]
< 10	< 10		NC(=O)c1ncc(N2CCC[C@@H](NC(=O)c3ccc(F)cc3)C2)nc1Nc1ccc(C2CCN(C3CCCC3)CC2)cc1 [Example 320, (R)-3-(4-(1-cyclopentylpiperidin-4-yl)phenylamino)-5-(3-(4-fluorobenzamido)piperidin-1-yl)pyrazine-2-carboxamide]	
< 10	< 10		NC(=O)c1ncc(N2CCC[C@@H](NC(=O)c3ccc4nccn4c3)C2)nc1Nc1ccc(C2CCOCC2)cc1 [Example 325, (R)—N-(1-(5-carbamoyl-6-(4-(tetrahydro-2H-pyran-4-yl)phenylamino)pyrazin-2-yl)piperidin-3-yl)imidazo[1,2-a]pyridine-6-carboxamide]	
< 10		< 10	CN(C)C(=O)N[C@@H]1CCCN(c2nnc(C(N)=O)c(Nc3ccc(C4CCN(C5CCCC5)CC4)cc3)n2)C1 [Example 329, (R)-5-(4-(1-cyclopentylpiperidin-4-yl)phenylamino)-3-(3-(3,3-dimethylureido)piperidin-1-yl)-1,2,4-triazine-6-carboxamide]	
< 10	< 10		CCC(=O)N[C@@H]1CCCN(c2nnc(C(N)=O)c(Nc3ccc(C4CCN(C5CCCC5)CC4)cc3)n2)C1 [Example 330, (R)-5-(4-(1-cyclopentylpiperidin-4-yl)phenylamino)-3-(3-propionamidopiperidin-1-yl)-1,2,4-triazine-6-carboxamide]	
< 10			COc1ccc(C(=O)N[C@@H]2CCCN(c3nnc(C(N)=O)c(Nc4ccc(N5CCN(C6CCCC6)CC5)cc4)n3)C2)cc1 [Example 331, (R)-5-(4-(4-cyclopentylpiperazin-1-yl)phenylamino)-3-(3-(4-methoxybenzamido)piperidin-1-yl)-1,2,4-triazine-6-carboxamide]	
< 10			COc1ccc(C(=O)N[C@@H]2CCCN(c3nnc(C(N)=O)c(Nc4ccc(N5CCC(C(=O)N(C)C)CC5)cc4)n3)C2)cc1 [Example 332, (R)-5-(4-(4-(dimethylcarbamoyl)piperidin-1-yl)phenylamino)-3-(3-(4-methoxybenzamido)piperidin-1-yl)-1,2,4-triazine-6-carboxamide]	
< 10			COc1ccc(C(=O)N[C@@H]2CCCN(c3nnc(C(N)=O)c(Nc4ccc(C5CCNCC5)cc4)n3)C2)cc1 [Example 333, (R)-3-(3-(4-methoxybenzamido)piperidin-1-yl)-5-(4-(piperidin-4-yl)phenylamino)-1,2,4-triazine-6-carboxamide]	
< 10			COc1ccc(C(=O)N[C@@H]2CCCN(c3nnc(C(N)=O)c(Nc4ccc(C5CCN(C6CCCC6)CC5)cc4)n3)C2)cc1 [Example 334, (R)-5-(4-(1-cyclopentylpiperidin-4-yl)phenylamino)-3-(3-(4-methoxybenzamido)piperidin-1-yl)-1,2,4-triazine-6-carboxamide]	
< 10			NC(=O)c1nnc(N2CCC[C@@H](NC(=O)N3CCCCC3)C2)nc1Nc1ccc(C2CCNCC2)cc1 [Example 335, (R)-5-(4-(piperidin-4-yl)phenylamino)-3-(3-(piperidine-1-carboxamido)piperidin-1-yl)-1,2,4-triazine-6-carboxamide]	
< 10	< 10		NC(=O)c1nnc(N2CCC[C@@H](NC(=O)N3CCCCC3)C2)nc1Nc1ccc(C2CCN(C=O)CC2)cc1 [Example 337, (R)-5-(4-(1-formylpiperidin-4-yl)phenylamino)-3-(3-(piperidine-1-carboxamido)piperidin-1-yl)-1,2,4-triazine-6-carboxamide]	
< 10	< 10		CC(=O)N1CCC(c2ccc(Nc3nc(N4CCC[C@@H](NC(=O)N5CCCCC5)C4)nnc3C(N)=O)cc2)CC1 [Example 338, (R)-5-(4-(1-acetylpiperidin-4-yl)phenylamino)-3-(3-(piperidine-1-carboxamido)piperidin-1-yl)-1,2,4-triazine-6-carboxamide]	
10 to 100	10 to 100		CCOc1ccc(C(=O)N[C@@H]2CCCN(c3nnc(C(N)=O)c(Nc4ccc(C(=N)N(C)C)cc4)n3)C2)cc1 [Example 342, (R)-5-(4-(N,N-dimethylcarbamimidoyl)phenylamino)-3-(3-(4-ethoxybenzamido)piperidin-1-yl)-1,2,4-triazine-6-carboxamide]	
< 10	< 10		CCOc1ccc(C(=O)N[C@@H]2CCCN(c3nnc(C(N)=O)c(Nc4ccc(C(=N)N5CCCC5)cc4)n3)C2)cc1 [Example 343, (R)-3-(3-(4-ethoxybenzamido)piperidin-1-yl)-5-(4-(imino(pyrrolidin-1-yl)methyl)phenylamino)-1,2,4-triazine-6-carboxamide]	
10 to 100			CCOc1ccc(C(=O)N[C@@H]2CCCN(c3nnc(C(N)=O)c(Nc4ccc(C5=NCCN5C)cc4)n3)C2)cc1 [Example 344, (R)-3-(3-(4-ethoxybenzamido)piperidin-1-yl)-5-(4-(1-methyl-4,5-dihydro-1H-imidazol-2-yl)phenylamino)-1,2,4-triazine-6-carboxamide]	

From patent US9656988B2 (Pharmacyclics LLC, priority 2013, dated 2017)
